Tests used:
ducksalad = test: Test B flooded paddy test; assay type: in vivo, Heteranthera limosa; settings: 1000 g ai/ha, scale 0 to 100 (0 no effect, 100 complete control)
Outline: (§1)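 Formulated test chemicals went onto postemergence plants measuring 2 to 18 cm, at one to four leaves. For the paddy assay, species had reached two leaves. Scoring took place 13–15 days later by eye, relative to untreated plants, using 0 for no effect up to 100 for full control.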

[1] = system: small flower umbrella sedge; test: Test B flooded paddy test; assay type: in vivo, Cyperus difformis; settings: 1000 g ai/ha, scale 0 to 100 (0 no effect, 100 complete control)
Outline: as §1

barnyardgrass [2] = test: Test B flooded paddy test; assay type: in vivo, Echinochloa crus-galli; settings: 1000 g ai/ha, scale 0 to 100 (0 no effect, 100 complete control)
Outline: as §1

blackgrass = test: Test B postemergence herbicide test; assay type: in vivo, Alopecurus myosuroides; settings: postemergence
Outline: as §1

large crabgrass = test: Test B pre-/postemergence herbicide test; assay type: in vivo, Digitaria sanguinalis; settings: for Plant response rating (0 to 100 scale), Crabgrass, Large: 0 is no effect; for Plant response rating (0 to 100 scale), Crabgrass, Large / Plant response rating, Crabgrass, Large: preemergence; for Crabgrass, Large plant response rating: postemergence; for Plant response rating, Crabgrass, Large: 0 = no effect, 100 = complete control
Outline: (§2)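 Greenhouse pot assay with simultaneous preemergence (treated seed) and postemergence (2–18 cm seedlings) applications of surfactant-containing, non-phytotoxic solvent formulations. Response scored visually 13–15 days later on a 0–100 scale, 100 meaning complete control.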

wild oat = test: Test B postemergence herbicide test; assay type: in vivo, Avena fatua; settings: postemergence
Outline: as §1

giant foxtail = test: Test B pre-/postemergence herbicide test; assay type: in vivo, Setaria faberi; settings: for Plant response rating (0 to 100 scale), Foxtail, Giant: 0 is no effect; for Plant response rating (0 to 100 scale), Foxtail, Giant / Plant response rating, Foxtail, Giant: preemergence; for Foxtail, Giant plant response rating: postemergence; for Plant response rating, Foxtail, Giant: 0 = no effect, 100 = complete control
Outline: as §2

lambsquarters = test: Test B pre-/postemergence herbicide test; assay type: in vivo, Chenopodium album; settings: for Plant response rating (0 to 100 scale), Lambsquarters: 0 is no effect; for Plant response rating (0 to 100 scale), Lambsquarters / Plant response rating, Lambsquarters: preemergence; for Lambsquarters plant response rating: postemergence; for Plant response rating, Lambsquarters: 0 = no effect, 100 = complete control
Outline: as §2

pigweed = test: Test B pre-/postemergence herbicide test; assay type: in vivo, Amaranthus retroflexus; settings: for Plant response rating (0 to 100 scale), Pigweed: 0 is no effect; for Plant response rating (0 to 100 scale), Pigweed / Plant response rating, Pigweed: preemergence; for Pigweed plant response rating: postemergence; for Plant response rating, Pigweed: 0 = no effect, 100 = complete control
Outline: as §2

morningglory = test: Test B pre-/postemergence herbicide test; assay type: in vivo, Ipomoea coccinea; settings: for Plant response rating (0 to 100 scale), Morningglory: 0 is no effect; for Plant response rating (0 to 100 scale), Morningglory / Plant response rating, Morningglory: preemergence; for Morningglory plant response rating: postemergence; for Plant response rating, Morningglory: 0 = no effect, 100 = complete control
Outline: (§3)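 Plants compared with untreated controls 13–15 days post-treatment and given a visual 0–100 injury score. Applications: preemergence to seeds; postemergence at 1- to 4-leaf (2–18 cm); paddy species flooded, 2-leaf stage. Vehicle non-phytotoxic, surfactant included.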

wheat = test: Test B postemergence herbicide test; assay type: in vivo, Triticum aestivum; design: key to Wheat plant response rating: 0 = no effect, 100 = complete control; settings: postemergence
Outline: as §1

cocklebur = test: Test B pre-/postemergence herbicide test; assay type: in vivo, Xanthium strumarium; settings: for Plant response rating (0 to 100 scale), Cocklebur: 0 is no effect; for Plant response rating (0 to 100 scale), Cocklebur / Plant response rating, Cocklebur: preemergence; for Cocklebur plant response rating: postemergence; for Plant response rating, Cocklebur: 0 = no effect, 100 = complete control
Outline: as §3

corn = test: Test B pre-/postemergence herbicide test; assay type: in vivo, Zea mays; settings: for Plant response rating (0 to 100 scale), Corn: 0 is no effect; for Plant response rating (0 to 100 scale), Corn / Plant response rating, Corn: preemergence; for Corn plant response rating: postemergence; for Plant response rating, Corn: 0 = no effect, 100 = complete control
Outline: as §2

Surinam grass = test: Test B pre-/postemergence herbicide test; assay type: in vivo, Urochloa decumbens; settings: for Plant response rating (0 to 100 scale), Surinam Grass: 0 is no effect; for Plant response rating (0 to 100 scale), Surinam Grass / Plant response rating, Surinam Grass: preemergence; for Surinam Grass plant response rating: postemergence; for Plant response rating, Surinam Grass: 0 = no effect, 100 = complete control
Outline: as §2

rice = test: Test B flooded paddy test; assay type: in vivo, Oryza sativa; settings: 1000 g ai/ha, scale 0 to 100 (0 no effect, 100 complete control)
Outline: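 Greenhouse test; postemergence application to plants at 1–4 leaves (2–18 cm); paddy species at 2 leaves; evaluated visually vs controls at 13–15 days; scale 0–100 (100 = complete control).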

barnyardgrass [3] = test: Test B pre-/postemergence herbicide test; assay type: in vivo, Echinochloa crus-galli; settings: for Plant response rating (0 to 100 scale), Barnyardgrass: 0 is no effect; for Plant response rating (0 to 100 scale), Barnyardgrass / Plant response rating, Barnyardgrass: preemergence; for Barnyardgrass plant response rating: postemergence; for Plant response rating, Barnyardgrass: 0 = no effect, 100 = complete control
Outline: as §3

[4] = 125 g ai/ha, visual rating, scale 0 (no effect) to 100 (complete control)
[5] = 500 g ai/ha, scale 0 to 100, 0 is no effect, 100 is complete control
[6] = 125 g ai/ha, 100 is complete control

CCn1nc(C(C)(C)C)cc1C(=O)Nc1cccc(OC(F)F)c1 [Compound 332]
Ducksalad plant response rating (ducksalad): 90
Sedge, Umbrella plant response rating [1]: 90
Barnyardgrass plant response rating (barnyardgrass [2]): 60
Blackgrass plant response rating (blackgrass; [4]): 40
Blackgrass plant response rating (blackgrass; [5]): 80
Plant response rating (0 to 100 scale), Crabgrass, Large (large crabgrass; [6]): 40
Crabgrass, Large plant response rating (large crabgrass; [4]): 50
Plant response rating, Crabgrass, Large (large crabgrass; 500 g ai/ha, visual rating): 100
Crabgrass, Large plant response rating (large crabgrass; [5]): 80
Oat, Wild plant response rating (wild oat; [4]): 40
Oat, Wild plant response rating (wild oat; [5]): 60
Plant response rating (0 to 100 scale), Foxtail, Giant (giant foxtail; [6]): 20
Foxtail, Giant plant response rating (giant foxtail; [4]): 30
Plant response rating, Foxtail, Giant (giant foxtail; 500 g ai/ha, visual rating): 60
Foxtail, Giant plant response rating (giant foxtail; [5]): 50
Plant response rating (0 to 100 scale), Lambsquarters (lambsquarters; [6]): 90
Lambsquarters plant response rating (lambsquarters; [4]): 80
Plant response rating, Lambsquarters (lambsquarters; 500 g ai/ha, visual rating): 100
Lambsquarters plant response rating (lambsquarters; [5]): 100
Plant response rating (0 to 100 scale), Pigweed (pigweed; [6]): 100
Pigweed plant response rating (pigweed; [4]): 100
Plant response rating, Pigweed (pigweed; 500 g ai/ha, visual rating): 100
Pigweed plant response rating (pigweed; [5]): 100
Plant response rating (0 to 100 scale), Morningglory (morningglory; [6]): 10
Morningglory plant response rating (morningglory; [4]): 40
Plant response rating, Morningglory (morningglory; 500 g ai/ha, visual rating): 30
Morningglory plant response rating (morningglory; [5]): 70
Wheat plant response rating (wheat; [4]): 20
Wheat plant response rating (wheat; [5]): 30
Plant response rating (0 to 100 scale), Cocklebur (cocklebur; [6]): 0
Cocklebur plant response rating (cocklebur; [4]): 30
Plant response rating, Cocklebur (cocklebur; 500 g ai/ha, visual rating): 0
Cocklebur plant response rating (cocklebur; [5]): 70
Plant response rating (0 to 100 scale), Corn (corn; [6]): 0
Corn plant response rating (corn; [4]): 0
Plant response rating, Corn (corn; 500 g ai/ha, visual rating): 0
Corn plant response rating (corn; [5]): 10
Plant response rating (0 to 100 scale), Surinam Grass (Surinam grass; [6]): 10
Surinam Grass plant response rating (Surinam grass; [4]): 20
Plant response rating, Surinam Grass (Surinam grass; 500 g ai/ha, visual rating): 20
Surinam Grass plant response rating (Surinam grass; [5]): 40
Rice plant response rating (rice): 50
Plant response rating (0 to 100 scale), Barnyardgrass (barnyardgrass [3]; [6]): 10
Barnyardgrass plant response rating (barnyardgrass [3]; [4]): 20
Plant response rating, Barnyardgrass (barnyardgrass [3]; 500 g ai/ha, visual rating): 60
Barnyardgrass plant response rating (barnyardgrass [3]; [5]): 60

CCn1nc(C(C)(C)C)cc1C(=O)Nc1cc(C(=S)N(C)C)ccn1 [Compound 334]
Ducksalad plant response rating (ducksalad): 90
Sedge, Umbrella plant response rating [1]: 80
Barnyardgrass plant response rating (barnyardgrass [2]): 90
Blackgrass plant response rating (blackgrass; [4]): 30
Blackgrass plant response rating (blackgrass; [5]): 70
Plant response rating (0 to 100 scale), Crabgrass, Large (large crabgrass; [6]): 90
Crabgrass, Large plant response rating (large crabgrass; [4]): 10
Plant response rating, Crabgrass, Large (large crabgrass; 500 g ai/ha, visual rating): 100
Crabgrass, Large plant response rating (large crabgrass; [5]): 50
Oat, Wild plant response rating (wild oat; [4]): 20
Oat, Wild plant response rating (wild oat; [5]): 30
Plant response rating (0 to 100 scale), Foxtail, Giant (giant foxtail; [6]): 90
Foxtail, Giant plant response rating (giant foxtail; [4]): 10
Plant response rating, Foxtail, Giant (giant foxtail; 500 g ai/ha, visual rating): 100
Foxtail, Giant plant response rating (giant foxtail; [5]): 60
Plant response rating (0 to 100 scale), Lambsquarters (lambsquarters; [6]): 100
Lambsquarters plant response rating (lambsquarters; [4]): 70
Plant response rating, Lambsquarters (lambsquarters; 500 g ai/ha, visual rating): 100
Lambsquarters plant response rating (lambsquarters; [5]): 90
Plant response rating (0 to 100 scale), Pigweed (pigweed; [6]): 60
Pigweed plant response rating (pigweed; [4]): 40
Plant response rating, Pigweed (pigweed; 500 g ai/ha, visual rating): 100
Pigweed plant response rating (pigweed; [5]): 70
Plant response rating (0 to 100 scale), Morningglory (morningglory; [6]): 0
Morningglory plant response rating (morningglory; [4]): 50
Plant response rating, Morningglory (morningglory; 500 g ai/ha, visual rating): 70
Morningglory plant response rating (morningglory; [5]): 80
Wheat plant response rating (wheat; [4]): 10
Wheat plant response rating (wheat; [5]): 20
Plant response rating (0 to 100 scale), Cocklebur (cocklebur; [6]): 60
Cocklebur plant response rating (cocklebur; [4]): 20
Plant response rating, Cocklebur (cocklebur; 500 g ai/ha, visual rating): 100
Cocklebur plant response rating (cocklebur; [5]): 70
Plant response rating (0 to 100 scale), Corn (corn; [6]): 20
Corn plant response rating (corn; [4]): 0
Plant response rating, Corn (corn; 500 g ai/ha, visual rating): 70
Corn plant response rating (corn; [5]): 20
Plant response rating (0 to 100 scale), Surinam Grass (Surinam grass; [6]): 80
Surinam Grass plant response rating (Surinam grass; [4]): 20
Plant response rating, Surinam Grass (Surinam grass; 500 g ai/ha, visual rating): 100
Surinam Grass plant response rating (Surinam grass; [5]): 50
Rice plant response rating (rice): 80
Plant response rating (0 to 100 scale), Barnyardgrass (barnyardgrass [3]; [6]): 90
Barnyardgrass plant response rating (barnyardgrass [3]; [4]): 0
Plant response rating, Barnyardgrass (barnyardgrass [3]; 500 g ai/ha, visual rating): 100
Barnyardgrass plant response rating (barnyardgrass [3]; [5]): 60

— patent publication US20060069132A1, “Azolecarboxamide herbicides” (priority 2004, published 2006)
